Article PMC9232501, “Results of the phase I CCTG IND.231 trial of CX-5461 in patients with advanced solid tumors enriched for DNA-repair deficiencies” (Nature Communications, 2022)
Where “and” joins values, the source holds several entries; their conditions need not be identical. Equal entries are not always repeated.

Experiments:
HCT116 cells [1] = assay: HCT116 cytotoxicity (WST-1 assay) with and without UVA radiation; type: cell-based, Human; conditions: for WST-1 raw signal (Figure 5c): replicates
Experimental: (§1) Fig. 5 Comparison of G4 ligand photosensitization. […] Vertical axis, fractional survival, horizontal axis log10 drug concentration (M) (f) Representative images of CPD immunofluorescent staining under UV and drug treatment conditions for U2OS cells, quantified from biological duplicates in (g) (h) Scale bar = 100um. U2OS cells were treated with drug or vehicle control, then immediately irradiated with UVA 125 mJ/cm^2; and fixed 1 h later for immunofluorescence staining with CPD antibody. g Distribution of mean intensity of CPD level per cell (total n = in labels), with two biological repeats per condition. Vertical axis, mean CPD intensity per cell, horizontal axis, conditions (h) WT or KO XPA HAP1 cells assayed for cytotoxicity. Vertical axis, fractional survival (WST-1 assay). The horizontal axis, log10 drug concentration (M). Error bars = standard deviation of the mean. Three biological repeats per condition.
(§2) Human epidermal keratinocytes (HEKa) cells were sourced from Thermo Fisher Scientific, and were grown in EpiLife™ Medium with HKGS. HAP WT and XPA knockout cell lines (Horizon Discovery) were cultured in IMDM, 10% FCS. Human HCT116 cells, U2OS cells (ATCC) were grown in McCoy’s 5 A medium with 10% FBS and L-glutamine. All cell lines are mycoplasma free and have been authenticated by STR or SNP profiling. CX-5461 was provided by Senhwa Biosciences, Inc. PDS is from Sigma-Aldrich, BRACO-19 from Alfa Chemistry, PhENDC3 is from Sigma-Aldrich, γ -H2AX antibody from Abcam (1:1000 for IF) and CPD antibody (1:1500) from Cosmo Bio Ltd. (Catalog number: CAC-NM-DAD-001). The WST-1 assay was performed as previously described, γ H2AX foci staining was performed as previously described. Immunofluorescence staining of CPD was performed according to the protocol from the manufacturer (Cosmo Bio Ltd).

U2OS cells = assay: CPD (cyclobutane pyrimidine dimer) immunofluorescence after UVA 125 mJ/cm^2; type: cell-based, Human; conditions: 1 h compound exposure
Experimental: as §1
Human epidermal keratinocytes (HEKa) cells were sourced from Thermo Fisher Scientific, and were grown in EpiLife™ Medium with HKGS. HAP WT and XPA knockout cell lines (Horizon Discovery) were cultured in IMDM, 10% FCS. Human HCT116 cells, U2OS cells (ATCC) were grown in McCoy’s 5 A medium with 10% FBS and L-glutamine. All cell lines are mycoplasma free and have been authenticated by STR or SNP profiling. […]

[2] = test system: γ-H2AX (double-stranded DNA breaks); assay: γ-H2AX immunofluorescent staining with and without UVA radiation; type: cell-based; conditions: CX5461 10^-8M, 5x10-8M; PDS 20 x 10^-6M
Experimental: as §2
(§3) Supplementary Figures and Tables
(§4) Supplementary Figure 1. UVA radiation increased double-stranded DNA breaks and ROS.
(§5) Representative pictures of g -H2AX immunofluorescent staining with and without UVA radiation, for […]
condition, quantified in (b) Quantile and mean intensity of g-H2AX level per cell, vertical axis. UV and drug factor conditions, horizontal axis. […] Number of cells as in Figure 5 g (c) The ratio of ROS level measured after UVA irradiation versus before UVA irradiation was calculated. […]

HCT116 cells [3] = assay: ROS measurement with H2DCFDA before/after UVA 125 mJ/cm^2; type: cell-based, Human; conditions: CX-5461 0.1 μM or PDS 10 μM for 1 h
Experimental: ROS measurement with H2DCFDA: HCT116 cells were treated with vehicle, CX-5461 0.1 μM or PDS 10 μM for 1 h, then were added with H2DCFDA for 45 min before initial fluorescence measurement. Cells were then irradiated with UVA 125 mJ/cm^2, and immediately sent for a second fluorescent measurement. The ratio of the second and the first fluorescent measurement was calculated as the level of ROS induced by UVA. Assays were performed in the 1-hour time frame within which UV damage manifests, in contrast to G4 ligand-induced damage which takes 3–4 h to be measurable.
as §3, §4, §5
condition, quantified in (b) Quantile and mean intensity of g-H2AX level per cell, vertical axis. UV and drug factor conditions, horizontal axis. Experiments were repeated two times (biological duplicates) and similar results were obtained. Number of cells as in Figure 5 g (c) The ratio of ROS level measured after UVA irradiation versus before UVA irradiation was calculated. Biological triplicates. The horizontal bar = median. ***P<0.0001, Welch’s t-test; n=8
(1 picture or pasted object on this page, not shown here)

[4] = test system: BRCA2 and BRCA1-deficient tumor models; conditions: cited from earlier work

**Q.** Which “potentiation of UVA-induced cytotoxicity” value (HCT116 cells [1]; UV 5 mJ/cm^2 and 125 mJ/cm^2) does the source give for `NCCOc1cc(C(=O)Nc2cc(OCCN)c3ccccc3n2)nc(C(=O)Nc2cc(OCCN)c3ccccc3n2)c1` [PDS, pyridostatin] here?
**A.** not

**Q.** And the “WST-1 raw signal (Figure 5c)” value (HCT116 cells [1]; conc 1.56e-6, 5mJ/cm2 UV)?
**A.** 3.2786 and 3.1337

**Q.** And the “WST-1 raw signal (Figure 5c)” value (HCT116 cells [1]; conc 1.56e-6, 125 mJ/cm2 UV)?
**A.** 2.9405 and 3.1793

**Q.** And the “WST-1 raw signal (Figure 5c)” value (HCT116 cells [1]; conc 1.56e-6, no UV)?
**A.** 3.373 and 3.3554

**Q.** What about the “WST-1 raw signal (Figure 5c)” value (HCT116 cells [1]; conc 3.13e-6, 5mJ/cm2 UV) of the same compound?
**A.** 2.8932 and 3.2752

**Q.** And the “WST-1 raw signal (Figure 5c)” value (HCT116 cells [1]; conc 3.13e-6, 125 mJ/cm2 UV)?
**A.** 3.2783 and 2.5154

**Q.** And the “WST-1 raw signal (Figure 5c)” value (HCT116 cells [1]; conc 3.13e-6, no UV)?
**A.** 3.1639 and 3.0204

**Q.** And the “WST-1 raw signal (Figure 5c)” value (HCT116 cells [1]; conc 6.25e-6, 5mJ/cm2 UV)?
**A.** 3.1968 and 2.1952

**Q.** What about the “WST-1 raw signal (Figure 5c)” value (HCT116 cells [1]; conc 6.25e-6, 125 mJ/cm2 UV) of the same compound?
**A.** 2.1994 and 1.9427

**Q.** What about the “WST-1 raw signal (Figure 5c)” value (HCT116 cells [1]; conc 6.25e-6, no UV) of the same compound?
**A.** 2.8791 and 2.2497

**Q.** And the “WST-1 raw signal (Figure 5c)” value (HCT116 cells [1]; conc 1.25e-5, 5mJ/cm2 UV)?
**A.** 0.8793 and 1.0754

**Q.** And the “WST-1 raw signal (Figure 5c)” value (HCT116 cells [1]; conc 1.25e-5, 125 mJ/cm2 UV)?
**A.** 1.8196 and 1.0192

**Q.** And the “WST-1 raw signal (Figure 5c)” value (HCT116 cells [1]; conc 1.25e-5, no UV)?
**A.** 1.2465 and 0.8301

**Q.** What about the “WST-1 raw signal (Figure 5c)” value (HCT116 cells [1]; conc 2.5e-5, 5mJ/cm2 UV) of the same compound?
**A.** 0.2188 and 0.2466

**Q.** And the “WST-1 raw signal (Figure 5c)” value (HCT116 cells [1]; conc 2.5e-5, 125 mJ/cm2 UV)?
**A.** 0.4428 and 0.3571

**Q.** What about the “WST-1 raw signal (Figure 5c)” value (HCT116 cells [1]; conc 2.5e-5, no UV) of the same compound?
**A.** 0.23 and 0.2464

**Q.** What about the “WST-1 raw signal (Figure 5c)” value (HCT116 cells [1]; conc 5e-5, 5mJ/cm2 UV) of the same compound?
**A.** 0.1582 and 0.148

**Q.** What about the “WST-1 raw signal (Figure 5c)” value (HCT116 cells [1]; conc 5e-5, 125 mJ/cm2 UV) of the same compound?
**A.** 0.1729 and 0.1634

**Q.** What about the “WST-1 raw signal (Figure 5c)” value (HCT116 cells [1]; conc 5e-5, no UV) of the same compound?
**A.** 0.1562 and 0.1551

**Q.** What about the “WST-1 raw signal (Figure 5c)” value (HCT116 cells [1]; conc 1.95E-07, 5mJ/cm2 UV) of the same compound?
**A.** 3.319 and 3.3471

**Q.** What about the “WST-1 raw signal (Figure 5c)” value (HCT116 cells [1]; conc 1.95E-07, 125 mJ/cm2 UV) of the same compound?
**A.** 2.9662 and 3.2767

**Q.** What about the “WST-1 raw signal (Figure 5c)” value (HCT116 cells [1]; conc 1.95E-07, no UV) of the same compound?
**A.** 3.3384 and 3.3351

**Q.** What about the “WST-1 raw signal (Figure 5c)” value (HCT116 cells [1]; conc 3.91E-07, 5mJ/cm2 UV) of the same compound?
**A.** 3.2173 and 2.6279

**Q.** What about the “WST-1 raw signal (Figure 5c)” value (HCT116 cells [1]; conc 3.91E-07, 125 mJ/cm2 UV) of the same compound?
**A.** 3.2982

**Q.** What about the “WST-1 raw signal (Figure 5c)” value (HCT116 cells [1]; conc 3.91E-07, no UV) of the same compound?
**A.** 3.3319 and 2.4545

**Q.** What about the “WST-1 raw signal (Figure 5c)” value (HCT116 cells [1]; conc 7.81E-07, 5mJ/cm2 UV) of the same compound?
**A.** 3.0666 and 2.7778

**Q.** What about the “WST-1 raw signal (Figure 5c)” value (HCT116 cells [1]; conc 7.81E-07, 125 mJ/cm2 UV) of the same compound?
**A.** 3.2287 and 3.2519

**Q.** And the “WST-1 raw signal (Figure 5c)” value (HCT116 cells [1]; conc 7.81E-07, no UV)?
**A.** 3.286 and 3.3592

**Q.** What about the “WST-1 raw signal (Figure 5c)” value (HCT116 cells [1]; conc 9.77E-08, 5mJ/cm2 UV) of the same compound?
**A.** 3.3085 and 3.2577

**Q.** What about the “WST-1 raw signal (Figure 5c)” value (HCT116 cells [1]; conc 9.77E-08, 125 mJ/cm2 UV) of the same compound?
**A.** 3.2825 and 3.2983

**Q.** And the “WST-1 raw signal (Figure 5c)” value (HCT116 cells [1]; conc 9.77E-08, no UV)?
**A.** 3.2977 and 3.3288

**Q.** What about the “potentiation of CPD formation by UVA” value (U2OS cells) of the same compound?
**A.** not

**Q.** What about the “DNA damage (γ-H2AX) in the presence of UVA” value [2] of the same compound?
**A.** not

**Q.** What about the “ROS in the presence of UVA (ratio after/before UVA)” value (HCT116 cells [3]) of the same compound?
**A.** not

**Q.** And the “synthetic lethality with loss of HR repair” value [4]?
**A.** synthetic lethal
